Entries after “also recorded” stand apart in the source; their conditions may differ. Where two headings read alike, the source gives them in different places.
Tests used:
[1] = target: T1, glutathione reductase (GR) (Homo sapiens, UniProt P00390); settings: cited from earlier work
T1 sequence (P00390 44-522): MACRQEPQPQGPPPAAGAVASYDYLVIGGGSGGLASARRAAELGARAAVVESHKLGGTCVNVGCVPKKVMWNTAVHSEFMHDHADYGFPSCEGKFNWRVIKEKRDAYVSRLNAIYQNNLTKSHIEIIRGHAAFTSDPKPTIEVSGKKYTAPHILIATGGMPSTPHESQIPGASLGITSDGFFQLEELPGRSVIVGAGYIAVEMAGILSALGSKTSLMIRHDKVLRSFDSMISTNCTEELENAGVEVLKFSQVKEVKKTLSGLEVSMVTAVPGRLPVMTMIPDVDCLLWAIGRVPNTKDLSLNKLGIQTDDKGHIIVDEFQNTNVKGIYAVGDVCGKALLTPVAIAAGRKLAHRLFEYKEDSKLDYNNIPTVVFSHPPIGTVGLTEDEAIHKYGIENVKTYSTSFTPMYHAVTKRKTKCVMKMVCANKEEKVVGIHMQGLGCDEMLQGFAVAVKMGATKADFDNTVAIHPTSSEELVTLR

[2] = test system: mammalian thioredoxin reductase (TXR); settings: cited from earlier work
[3] = test system: coupled thioredoxin (TX)/thioredoxin reductase (TXR)/NADPH system; type: biochemical, bovine
Method: (§1) Biochemistry 21:6628-6633 (1982).
(§2) Data was then collected and plotted in Microsoft Excel. Error calculations, and graphical representations were performed in Microsoft Excel and Kaleidograph (ver. 3.5). Nonlinear data was graphically rendered using Kaleidograph. ANOVA and other statistical analyses were performed using SAS (ver. 8.2). Unless otherwise noted, significance level was set at 0.05, and error bars represent actual experimental standard deviation.
Table5, below, illustrates that various Formula (I) compounds (i.e., disulfide-containing compounds) of the present invention can serve as alternate substrate inhibitors for the coupled thioredoxin (TX)/thioredoxin reductase (TXR)/NADPH system as measured by the oxidation of NADPH. In Table5, the Formula (I) compounds were utilized at a concentration of 0.5 mM.

[4] = target: T1, glutathione reductase (GR); assay: NADPH oxidation by glutathione reductase, without or with GSH; type: biochemical
Method: (§3) Table 4, below, illustrates that various Formula (I) compounds (i.e., dithiol-containing compounds) may act as alternative substrate inhibitors for the coupled GRX/GSH/GR system as measured by NADPH oxidation. The Formula (I) compound was utilized at a concentration of 0.5 mM.

[5] = target: T2, thioredoxin reductase (TXR) (Bos taurus, UniProt O62768); assay: NADPH oxidation by thioredoxin reductase only; type: biochemical; settings: listed as Tavocept™
T2 sequence (O62768 1-499): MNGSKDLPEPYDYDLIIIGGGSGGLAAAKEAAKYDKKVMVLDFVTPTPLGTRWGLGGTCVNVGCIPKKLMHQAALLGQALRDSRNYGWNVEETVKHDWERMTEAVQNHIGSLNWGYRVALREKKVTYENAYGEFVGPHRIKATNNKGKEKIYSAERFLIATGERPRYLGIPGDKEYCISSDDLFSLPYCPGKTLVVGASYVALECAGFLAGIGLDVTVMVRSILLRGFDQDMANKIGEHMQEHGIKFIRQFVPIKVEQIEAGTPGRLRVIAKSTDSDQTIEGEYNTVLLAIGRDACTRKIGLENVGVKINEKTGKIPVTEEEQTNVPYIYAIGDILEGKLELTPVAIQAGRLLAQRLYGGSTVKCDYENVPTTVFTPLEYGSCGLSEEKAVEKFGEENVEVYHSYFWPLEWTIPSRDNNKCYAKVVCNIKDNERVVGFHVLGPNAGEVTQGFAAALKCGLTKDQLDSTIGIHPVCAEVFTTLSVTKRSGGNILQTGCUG
Method: as §1, §2

[6] = test system: patients with advanced, Stage IIIB/IV, non-small cell lung carcinoma (NSCLC), including the adenocarcinoma sub-type; assay: U.S. Phase II NSCLC Clinical Trial (dose-dense docetaxel/cisplatin with or without Tavocept™); type: in vivo, human; settings: Tavocept™ arm vs non-Tavocept™ arm
Description: As utilized herein, the term “clinical trial” or “trial”, refers to: • (i) the Japan Phase III Clinical Trial disclosed in the present invention which was utilized to show the ability of Tavocept™ (also referred to in the literature as disodium 2,2′-dithio-bis-ethane sulfonate, dimesna, or BNP7787) to prevent and/or reduce peripheral neuropathy induced by paclitaxel/cisplatin combination therapy. The incidence and severity of adverse reactions, time to their onset, etc. and the like, were compared between patients treated with Tavocept™ and those given a placebo using Quality of Life (QOL) questionnaires (i.e., Peripheral Neuropathy Questionnaire (PNQ©) and CIPN-20)) and the National Cancer Institute-Common Toxicity Criteria (NCI-CTC). The effects of Tavocept™ on the Quality of Life (QOL) of patients under anticancer treatment were also evaluated using the QOL questionnaire, EORTC QLQ-C30. Whether or not Tavocept™ would affect the efficacy of paclitaxel/cisplatin combination therapy was also evaluated based on the response rate, aggravation-free survival period, and total survival period. […] Whether or not Tavocept™ would affect the efficacy of the dose-dense docetaxel/cisplatin combination therapy was also evaluated based on the response rate, aggravation-free survival period, and total survival period. […]

[7] = target: T3, coupled glutaredoxin (GRX)/glutathione (GSH)/glutathione reductase (GR) system (Homo sapiens, UniProt P35754); assay: NADPH oxidation by coupled GRX/GSH/GR system; type: biochemical; settings: in the presence of reduced glutathione and glutathione reductase
T3 sequence (P35754 1-106): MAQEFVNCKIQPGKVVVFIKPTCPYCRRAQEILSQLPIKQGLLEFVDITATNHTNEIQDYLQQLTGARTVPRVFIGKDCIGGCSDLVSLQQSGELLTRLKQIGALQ
Method: as §3

[8] = test system: ovarian cancer cell lines; assay: Cytotoxicity in ovarian cancer cell lines; type: cell-based, human; settings: mesna (100 μM) in combination with oxaliplatin vs oxaliplatin alone controls
brain cancer cells = assay: Cytotoxicity in brain cancer cells; type: cell-based, human; settings: oxaliplatin and mesna; observable but not statistically significant
[9] = test system: non-small cell lung carcinoma (NSCLC) cell lines; assay: Cytotoxicity in NSCLC cell lines; type: cell-based, human
[10] = test system: whole cells (reduction of TX/TXR and GRX substrates); assay: Whole cell mediated disulfide reduction; type: cell-based; settings: mesna in combination with cisplatin

SMILES: N.N.O.[Cl][Pt+] [monohydrated complex]
- inhibition of GR (in words) ([1]; literature studies): not GR
- inhibition of TXR (in words) ([2]; literature studies): irreversibly inhibited TXR

SMILES: NC(CSSCCS(=O)(=O)O)C(=O)O (stereo not drawn) [BNP7766]
- substrate activity / NADPH oxidation by TXR in the presence of TX (in words) [3]: substrates

SMILES: CS(=O)(=O)OCCCCOS(C)(=O)=O [busulfan]
- inhibition of GR (in words) ([1]; literature studies): not GR
- inhibition of TXR (in words) ([2]; literature studies): irreversibly inhibited TXR in a concentration- and time-dependent manner

SMILES: O=S(=O)([O-])CCSSCCS(=O)(=O)[O-].[Na+].[Na+] [BNP7787, disodium 2,2′-dithio-bis-ethane sulfonate]
- substrate activity for glutathione reductase (in words) [4]: not a substrate for glutathione reductase
- NADPH oxidation / substrate activity with thioredoxin reductase alone, absence of TX (in words) [5]: indistinguishable from background; also recorded: not thioredoxin reductase alone
- increase in patient (median) survival, adenocarcinoma ([6]; listed as Tavocept): ~6.5 month
- increase in patient (median) survival, adenocarcinoma ([6]; listed as Tavocept™): 6.54 month
- activity with glutaredoxin (in words) [7]: substrate-like activity

SMILES: N.N.[Cl][Pt][Cl] [cisplatin, cis-diamminedichloroplatinum]
- inhibition of GR (in words) ([1]; literature studies): not GR
- inhibition of TXR (in words) ([2]; literature studies): irreversibly inhibited TXR

SMILES: O=NN(CCCl)C(=O)NCCCl [carmustine]
- inhibition of GR (in words) ([1]; literature studies): can inhibit both GR and TXR
- inhibition of TXR (in words) ([2]; literature studies): can inhibit both GR and TXR

SMILES: O=P1(N(CCCl)CCCl)NCCCO1 (stereo not drawn) [cyclophosphamide]
- inhibition of GR (in words) ([1]; literature studies): not GR
- inhibition of TXR (in words) ([2]; literature studies): irreversibly inhibited TXR in a concentration- and time-dependent manner

SMILES: NC(CCSSCCS(=O)(=O)O)C(=O)O (stereo not drawn) [BNP7768]
- substrate activity / NADPH oxidation by TXR in the presence of TX (in words) [3]: substrates

SMILES: O=P1(NCCCl)OCCCN1CCCl (stereo not drawn) [ifosfamide]
- inhibition of TXR (in words) ([2]; literature studies): inhibited TXR

SMILES: N.N.O=C([O-])C1(C(=O)[O-])CCC1.[Pt+2] [carboplatin]
- inhibition of GR (in words) ([1]; literature studies): could not inhibit either TXR or GR
- inhibition of TXR (in words) ([2]; literature studies): could not inhibit either TXR or GR

SMILES: N.N.[Cl][Pt+2][Cl] [transplatin]
- inhibition of GR (in words) ([1]; literature studies): not GR
- inhibition of TXR (in words) ([2]; literature studies): irreversibly inhibited TXR

SMILES: O=C(O)CCCc1ccc(N(CCCl)CCCl)cc1 [chlorambucil]
- inhibition of GR (in words) ([1]; literature studies): not GR
- inhibition of TXR (in words) ([2]; literature studies): irreversibly inhibited TXR in a concentration- and time-dependent manner

SMILES: N[C@@H](Cc1ccc(N(CCCl)CCCl)cc1)C(=O)O [melphalan]
- inhibition of GR (in words) ([1]; literature studies): not GR
- inhibition of TXR (in words) ([2]; literature studies): irreversibly inhibited TXR in a concentration- and time-dependent manner

SMILES: O=S(=O)(O)CCS [mesna, sodium-2-mercaptoethane sulfonate]
- cytotoxic effect of oxaliplatin [8]: markedly enhanced the cytotoxic effect
- oxaliplatin cytotoxicity (brain cancer cells): lesser increase in oxaliplatin cytotoxicity
- cytotoxic effect of oxaliplatin ([9]; mesna (100 μM) in combination with oxaliplatin vs oxaliplatin alone controls, NSCLC): markedly enhanced the cytotoxic effect
- cytotoxic effect of paclitaxel ([9]; mesna (100 μM) in combination with paclitaxel vs paclitaxel alone controls): enhanced the cytotoxic effect
- reduction of α-lipoic acid (TX/TXR substrate) or hydroxyethyldisulfide (GRX substrate) by whole cells [10]: enhanced the reduction

SMILES: N[C@@H](CCC(=O)N[C@@H](CSSCCS(=O)(=O)O)C(=O)NCC(=O)O)C(=O)O [BNP7772]
- substrate activity for glutathione reductase (in words) [4]: functions as an alternative substrate inhibitor
- substrate activity / NADPH oxidation by TXR in the presence of TX (in words) [3]: substrates

SMILES: N[C@@H](CSSCCS(=O)(=O)O)C(=O)NCC(=O)O [BNP7776]
- substrate activity / NADPH oxidation by TXR in the presence of TX (in words) [3]: substrates

SMILES: O=C1[O][Pt]2([NH][C@@H]3CCCC[C@H]3[NH]2)[O]C1=O [oxaliplatin]
- inhibition of GR (in words) [1]: not GR
- inhibition of TXR (in words) [2]: irreversibly inhibited TXR
